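Step 1: Grow cells in 96-well plates. Step 2: Expose to compound for 48 hours at 5 concentrations. Step 3: Interpolate endpoints linearly; if unreached, use highest concentration. TGI: total growth inhibition.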
Tests used:
Assay in all cases: growth of human tumour cells (NCI), 48 h
[1] = system: SR leukemia
[2] = system: OVCAR-5 ovarian
[3] = system: NCI/ADR-RES ovarian
[4] = system: A549 NSCLC
[5] = system: SW-620 colon
[6] = system: SK-MEL-28 melanoma
[7] = system: LOX IMVI melanoma
[8] = system: NCI-H23 lung
[9] = system: RXF 393 renal
[10] = system: SK-MEL-5 melanoma
[11] = system: IGROV1 ovarian
[12] = system: M14 melanoma
[13] = system: MDA-MB-435
[14] = system: MDA-N
[15] = system: NCI-H226 lung
[16] = system: SK-MEL-2 melanoma
[17] = system: HT29 colon
[18] = system: OVCAR-3 ovarian
[19] = system: A498 renal
[20] = system: COLO 205 colon
[21] = system: MCF7 breast
[22] = system: HS 578T breast
[23] = system: MDA-MB-231 breast
[24] = system: HCT-15 colon
[25] = system: RPMI-8226 leukemia
[26] = system: TK-10 renal
[27] = system: UACC-62 melanoma
[28] = system: ACHN renal
[29] = system: DU-145 prostate
[30] = system: HOP-92 NSCLC
[31] = system: KM12 colon
[32] = system: SNB-75 CNS
[33] = system: SF-268 CNS
[34] = system: CAKI-1 renal
[35] = system: MOLT-4 leukemia
[36] = system: CCRF-CEM leukemia
[37] = system: PC-3 prostate
[38] = system: SF-295 CNS
[39] = system: SNB-19 CNS
[40] = system: OVCAR-8 ovarian
[41] = system: EKVX NSCLC
[42] = system: SN12C renal
[43] = system: UACC-257 melanoma
[44] = system: HL-60(TB) leukemia
[45] = system: SF-539 CNS
[46] = system: 786-0 renal
[47] = system: NCI-H460 lung
[48] = system: HCT-116 colon
[49] = system: OVCAR-4 ovarian
[50] = system: UO-31 renal
[51] = system: NCI-H522 lung
[52] = system: U251 CNS
[53] = system: T-47D breast
[54] = system: SK-OV-3 ovarian
[55] = system: HOP-62 NSCLC
[56] = system: K-562 leukemia
[57] = system: MALME-3M melanoma

Measured: TGI

Clc1cc(-c2csc(Cl)c2)cs1
not listed: [53] | [54] | [55] | [56] | [57]
> 100 µM: all other assays above

Clc1ccc(C2=NNC(c3cccc(Cl)c3)C2)cc1 (stereo not given)
21.4 µM: [50]
96.5 µM: [32]
28.1 µM: [10]
53.2 µM: [42]
96.8 µM: [36]
55.1 µM: [23]
41 µM: [25]
41.8 µM: [13]
89.9 µM: [3]
59.6 µM: [14]
29.3 µM: [20]
33.7 µM: [7]
38.2 µM: [30]
92.6 µM: [38]
92.7 µM: [46]
45 µM: [19]
79.9 µM: [26]
78.1 µM: [54]
74.9 µM: [5]
5.07 µM: [11]
5.55 µM: [16]
37.5 µM: [52]
97.4 µM: [37]
14.4 µM: [51]
not listed: [6] | [24] | [28] | [40]
> 100 µM: all other assays above

— PubChem BioAssay (NCI)
